Test results taken from patent US7265152B2 (ViroPharma Incorporated, priority 2002, dated 2007).
Where two headings read alike, the source gives them in different places.

How the values were obtained:
[1] = test system: HCV replicon (BB7 sequence) in Huh-7-Clone A cells; assay: HCV replicon assay: ELISA of NS5A protein in replicon-containing cells (Inhibition of Viral RNA Replication); assay type: cell-based; conditions: read-out: Replicon
Method in brief: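 EC50 taken from an 8-point serially diluted dose curve, with NS5A level as read-out: fixed cells probed with primary monoclonal and HRP-conjugated secondary, TMB developed 30 min, OD 650 nm. Compound exposure 72 h in Huh-7-Clone A replicon cells (BB7 sequence).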

HCV NS5B = biological target: T1, HCV NS5B (Hepatitis C virus genotype 1b, UniProt Q9WMX2); assay: Inhibition of viral RNA-dependent RNA polymerase (RdRp), in vitro biochemical assay; set-up: species or system HCV genotype 1b virus (BB7); conditions: read-out: HCV pol-BB7 IC50
T1 construct: fusion protein, of which the carboxyl terminal 21 amino acids were removed to enhance its solubility; His tag (GSHHHHHH); made in house; host or cells: E. coli
Method in brief: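 IC50 values are the concentrations that halve in vitro RNA synthesis by HCV NS5B polymerase. The enzyme was a C-terminally truncated (Δ21), His-tagged genotype 1b (BB7 consensus) protein purified from E. coli.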

[2] = Hepatitis C virus, Huh-7-Clone A, NS5A ELISA, 72-hour incubation, ranges of EC50
[3] = purified His-tagged NS5B (BB7), carboxyl terminal 21 amino acids removed
[4] = Hepatitis C virus, ranges of EC50 in HCV replicon assay

Row | Structure (SMILES) | EC50 [1, 2] [µM] | IC50 (HCV NS5B; [3]) [nM] | EC50 [1, 4] [µM] | IC50 (HCV NS5B; HCV NS5B RdRp, BB7 genotype 1b) [nM] | EC50 ([1]; ranges of EC50 in HCV replicon assay) [µM]
1 | CNC(=O)c1c(-c2ccc(F)cc2)oc2c(C)cc(OC(C)C)cc12 [Example 80, 2-(4-Fluoro-phenyl)-5-isopropoxy-7-methyl-benzufuran-3-carboxylic acid methylamide] | < 30 | 500 to 5000 | – | – | –
2 | CNC(=O)c1c(-c2ccc(F)cc2)oc2cc(C)c(OC)cc12 [Example 81, 2-(4-Fluoro-phenyl)-5-methoxy-6-methyl-benzofuran-3-carboxylic acid methylamide] | < 10 | ≤ 500 | – | – | –
3 | CNC(=O)c1c(-c2ccc(F)cc2)oc2ccc(F)cc12 [Example 82, 5-Fluoro-2-(4-fluoro-phenyl)-benzofuran-3-carboxylic acid methylamide] | < 30 | 500 to 5000 | – | – | –
4 | CCc1ccc(-c2oc3ccc(F)cc3c2C(=O)NC)cc1 [Example 83, 2-(4-Ethyl-phenyl)-5-fluoro-benzofuran-3-carboxylic acid methylamide] | < 10 | ≤ 500 | – | – | –
5 | CCc1ccc2oc(-c3ccccc3)c(C(=O)NC)c2c1 [Example 84, 5-Ethyl-2-phenyl-benzofuran-3-carboxylic acid methylamide] | < 30 | 500 to 5000 | – | – | –
6 | CNC(=O)c1c(-c2ccc(Cl)s2)oc2ccc(OC)cc12 [Example 85, 2-(5-Chloro-thiophen-2-yl)-5-methoxy-benzofuran-3-carboxylic acid methylamide] | < 10 | ≤ 500 | – | – | –
7 | CNC(=O)c1c(-c2ccccc2)oc2ccc(C(C)C)cc12 [Example 86, 5-Isopropyl-2-phenyl-benzofuran-3-carboxylic acid methylamide] | < 10 | ≤ 500 | – | – | –
8 | CCOc1ccc2oc(-c3ccc(Cl)s3)c(C(=O)NC)c2c1 [Example 87, 2-(5-Chloro-thiophen-2-yl)-5-ethoxy-benzofuran-3-carboxylic acid methylamide] | < 10 | ≤ 500 | – | – | –
9 | CNC(=O)c1c(-c2cccs2)oc2ccc(OC)cc12 [Example 88, 5-Methoxy-2-thiophen-2-yl-benzofuran-3-carboxylic acid methylamide] | < 30 | 500 to 5000 | – | – | –
10 | CNC(=O)c1c(-c2cccnc2)oc2ccc(Cl)cc12 [Example 89, 5-Chloro-2-pyridin-3-yl-benzofuran-3-carboxylic acid methylamide] | > 30 | 500 to 5000 | – | – | –
11 | CNC(=O)c1c(-c2ccc(Br)c(F)c2)oc2ccc(OC(C)C)cc12 [Example 90, 2-(4-Bromo-3-fluoro-phenyl)-5-isopropoxy-benzofuran-3-carboxylic acid methylamide] | – | – | < 10 | ≤ 500 | –
12 | CNC(=O)c1c(-c2ccc(F)cc2)oc2cc(Br)c(OC(C)C)cc12 [Example 92, 6-Bromo-2-(4-fluoro-phenyl)-5-isopropoxy-benzofuran-3-carboxylic acid methylamide] | – | – | < 1 | ≤ 500 | –
13 | CNC(=O)c1c(-c2ccc(N3CCOCC3)cc2)oc2ccc(OC)cc12 [Example 93, 5-Methoxy-2-(4-morpholin-4-yl-phenyl)-benzofuran-3-carboxylic acid methylamide] | – | – | > 30 | 500 to 5000 | –
14 | CNC(=O)c1c(-c2ccccc2)oc2cc(OC)c(OC)cc12 [Example 94, 5,6-Dimethoxy-2-phenyl-benzofuran-3-carboxylic acid methylamide] | – | – | < 1 | ≤ 500 | –
15 | CNC(=O)c1c(-c2ccc(N3CCCC3)cc2)oc2ccc(OC(C)C)cc12 [Example 95, 5-Isopropoxy-2-(4-pyrrolidin-1-yl-phenyl)-benzofuran-3-carboxylic acid methylamide] | – | – | < 30 | 5000 to 30000 | –
16 | CNC(=O)c1c(-c2ccncc2)oc2ccc(F)cc12 [Example 96, 5-Fluoro-2-pyridin-4-yl-benzofuran-3-carboxylic acid methylamide] | – | – | > 30 | 500 to 5000 | –
17 | CNC(=O)c1c(-c2ccc(F)cc2)oc2cc(C)c(OC(C)C(=O)O)cc12 (stereo not drawn) [Example 97, 2-[2-(4-Fluoro-phenyl)-6-methyl-3-methylcarbamoyl-benzofuran-5-yloxy]-propionic acid] | – | – | > 30 | 5000 to 30000 | –
18 | CNC(=O)c1c(-c2ccc(F)cc2)oc2cc(NC(C)=O)c(OC(C)C)cc12 [Example 98, 6-Acetylamino-2-(4-fluoro-phenyl)-5-isopropoxy-benzofuran-3-carboxylic acid methylamide] | – | – | < 10 | ≤ 500 | –

Row | Structure (SMILES) | EC50 [1, 2] [µM] | IC50 (HCV NS5B; [3]) [nM] | EC50 [1, 4] [µM] | IC50 (HCV NS5B; HCV NS5B RdRp, BB7 genotype 1b) [nM] | EC50 ([1]; ranges of EC50 in HCV replicon assay) [µM]
19 | CNC(=O)c1c(-c2ccc(N)cc2)oc2ccc(OC(C)C)cc12 [Example 99, 2-(4-Amino-phenyl)-5-isopropoxy-benzofuran-3-carboxylic acid methylamide] | – | – | < 30 | 500 to 5000 | –
20 | CNC(=O)c1c(-c2ccc(F)cc2)oc2cc(NCCN3CCOCC3)c(OC(C)C)cc12 [Example 100, 2-(4-Fluoro-phenyl)-5-isopropoxy-6-(2-morpholin-4-yl-ethylamino)-benzofuran-3-carboxylic acid methylamide] | – | – | < 30 | 500 to 5000 | –
21 | CNC(=O)c1c(-c2ccc(F)cc2)oc2cc(N3CCCCC3)c(OC(C)C)cc12 [Example 101, 2-(4-Fluoro-phenyl)-5-isopropoxy-6-piperidin-1-yl-benzofuran-3-carboxylic acid methylamide] | – | – | < 1 | ≤ 500 | –
22 | CNC(=O)c1c(-c2ccc(F)cc2)oc2cc(OC)c(OC)cc12 [Example 102, 2-(4-Fluoro-phenyl)-5,6-dimethoxy-benzofuran-3-carboxylic acid methylamide] | – | – | < 1 | ≤ 500 | –
23 | CNC(=O)c1c(-c2ccc(F)cc2)oc2cc(N3CCOCC3)c(OC)cc12 [Example 103, 2-(4-Fluoro-phenyl)-5-methoxy-6-morpholin-4-yl-benzofuran-3-carboxylic acid methylamide] | – | – | < 1 | ≤ 500 | –
24 | CNC(=O)c1c(-c2ccc(F)c(O)c2)oc2ccc(OC(C)C)cc12 [Example 105, 2-(4-Fluoro-3-hydroxy-phenyl)-5-isopropoxy-benzofuran-3-carboxylic acid methylamide] | – | – | < 30 | 5000 to 30000 | –
25 | CNC(=O)c1c(-c2ccc(C#N)cc2)oc2ccc(OC(C)C)cc12 [Example 106, 2-(4-Cyano-phenyl)-5-isopropoxy-benzofuran-3-carboxylic acid methylamide] | – | – | < 30 | 500 to 5000 | –
26 | CNC(=O)c1c(-c2ccncc2)oc2ccc(OC)cc12 [Example 107, 5-Methoxy-2-pyridin-4-yl-benzofuran-3-carboxylic acid methylamide] | – | – | < 100 | 500 to 5000 | –
27 | CNC(=O)c1c(-c2ccc(F)cc2)oc2cc(N3CCC(S(C)(=O)=O)C3)c(OC(C)C)cc12 (stereo not drawn) [Example 108, 2-(4-Fluoro-phenyl)-5-isopropoxy-6-(3-methanesulfonyl-pyrrolidin-1-yl)-benzofuran-3-carboxylic acid methylamide] | – | – | < 1 | ≤ 500 | –
28 | CNC(=O)c1c(-c2ccc(F)cc2)oc2cc(N3CCC3)c(OC(C)C)cc12 [Example 109] | – | – | – | ≤ 500 | < 1
29 | CNC(=O)c1c(-c2ccc(F)cc2)oc2cc(N3CCC(O)C3)c(OC(C)C)cc12 (stereo not drawn) [Example 110] | – | – | < 1 | ≤ 500 | –
30 | CNC(=O)c1c(-c2ccc(F)cc2)oc2cc(N(C)S(C)(=O)=O)c(OC(C)C)cc12 [Example 111, 2-(4-Fluoro-phenyl)-5-isopropoxy-6-(methanesulfonyl-methyl-amino)-benzofuran-3-carboxylic acid methylamide] | – | – | < 1 | ≤ 500 | –
31 | CNC(=O)c1c(-c2ccc(F)cc2)oc2cc(NCc3ccoc3)c(OC(C)C)cc12 [Example 112, 2-(4-Fluoro-phenyl)-6-[(furan-3-ylmethyl)-amino]-5-isopropoxy-benzofuran-3-carboxylic acid methylamide] | – | – | < 1 | ≤ 500 | –
32 | CNC(=O)c1c(-c2ccc(F)cc2)oc2cc(NCC(O)CO)c(OC(C)C)cc12 (stereo not drawn) [Example 113, 6-(2,3-Dihydroxy-propylamino)-2-(4-fluoro-phenyl)-5-isopropoxy-benzofuran-3-carboxylic acid methylamide] | – | – | < 10 | 500 to 5000 | –
33 | CNC(=O)c1c(-c2ccc(F)cc2)oc2cc(NC(C)C)c(OC(C)C)cc12 [Example 114, 2-(4-Fluoro-phenyl)-5-isopropoxy-6-isopropylamino-benzofuran-3-carboxylic acid methylamide] | – | – | < 1 | ≤ 500 | –
34 | CNC(=O)c1c(-c2ccc(F)cc2)oc2cc(NCC3CC3)c(OC(C)C)cc12 [Example 115, 6-(Cyclopropylmethyl-amino)-2-(4-fluoro-phenyl)-5-isopropoxy-benzofuran-3-carboxylic acid methylamide] | – | – | < 1 | ≤ 500 | –
35 | CNC(=O)c1c(-c2ccc(F)cc2)oc2cc(N3CCCC3)c(OC)cc12 [Example 116, 2-(4-Fluoro-phenyl)-5-methoxy-6-pyrrolidin-1-yl-benzofuran-3-carboxylic acid methylamide] | – | – | < 1 | ≤ 500 | –
36 | CNC(=O)c1c(-c2ccc(F)cc2)oc2cc(N3CCOCC3)c(OCc3ccccc3)cc12 [Example 117, 5-Benzyloxy-2-(4-fluoro-phenyl)-6-morpholin-4-yl-benzofuran-3-carboxylic acid methylamide] | – | – | < 1 | ≤ 500 | –
